System: translocation of STAT6(B) and LITAF in mouse macrophages
Test: Western blot after kinase inhibitor pretreatment plus LPS stimulation (FIG. 13)
Type: cell-based
Details: pretreatment before LPS stimulation
Excerpt: It is well known that STAT family members share two major domains, oligomerization and Src homology 2 (SH2), for phosphorylation by Janis kinases (Jaks) that facilitate dimerization of STAT proteins and subsequent translocation into the nucleus (Gallmeier, et al., J Cell Physiol, 203:209-216, 2005; Chen, et al., J Allergy Clin Immunol, 114:476-489, 2004, Tang, et al., PNAS USA, 102:5132-5137, 2005). […] In this Western blot, cells were pretreated with various kinase inhibitors (FIG. 13a) before LPS stimulation.

Question: `C[S+]([O-])c1ccc(-c2nc(-c3ccncc3)c(-c3ccc(F)cc3)[nH]2)cc1` (stereo not drawn) [SB203580] was tested. Which “TNF-α protein levels compared to cells exposed to LPS only” value did it give?
Answer: Its value is “suppression”.

Question: And the “LITAF and STAT6(B) expression in the nucleus” value (Western blot)?
Answer: The value was “substantially reduced”.

Question: What about the “whole cell extract LITAF and STAT6(B) expression” value (Western blot) of the same compound?
Answer: The value was “unchanged”.

— US20090062190A1, “Transcriptional Regulation of Cytokines by LITAF and STAT (6)(B)” (priority 2005, published 2009)
